Entries after “also recorded” stand apart in the source; their conditions may differ.
Assays:
[1] = tested on: silenced CpG-free AcGFP1 clones; assay: NaBut treatment of silenced CpG-free AcGFP1 clones, % GFP expression by flow cytometry; format: cell-based
Experimental: FIGS. 5A-5B: Silenced transgene be reactivated with NaBut treatment. A small number of cells were silenced in the CpG-free AcGPF1 cultures (<3% of cells, FIG. 3A). These silenced cells were single cell sorted and expanded to further investigate their silencing and research methods for overcoming the silencing. Two months after sorting for no GFP expression, silenced CpG-free AcGFP1 clones were treated with 1 mM, 0.5 mM, or 1 μM of NaBut. […] After a successful pilot experiment, the duration of NaBut treatment was increased to 46 days with NaBut treatment doses of 0.25 mM and 0.5 mM and the GFP expression levels were monitored over time by fluorescent microscopy and flow cytometry. The initial results were confirmed (FIGS. 5A and 5B, dark blue bar: day 8 of treatment).
However, after 5 months, a small percentage of cells were detected with no GFP expression (3%) even though the CpGs had been removed from AcGFP1. To investigate this population, clones were isolated by single cell sorting for no GFP expression. The cells were treated with sodium butyrate (NaBut), a histone deacetylase (HDAC) inhibitor capable of removing chromatin structure and inducing demethylation.

[2] = tested on: iPSC-derived neuronal cells; assay: ZsGreen expression after neuronal differentiation protocol, day 21 flow cytometry; format: cell-based, human; conditions: day 21 of differentiation
Description: (§1) Differentiation: In order to determine the stability of expression post-differentiation, the engineered lines were subjected to differentiation protocols to direct them toward either neuronal or cardiac cell types.

[3] = tested on: iPSC line 01279.107; assay: ZsGreen expression in engineered iPSC lines in long-term culture, flow cytometry; format: cell-based, human; conditions: for ZsGreen expression in iPSC over time: culture up to seven months, E8 media/vitronectin
Description: ZsGreen Constructs Integrated at the AAVS1 Safe Harbor Locus: To examine longer term expression driven by the candidate promoters in a chromosomal context, they were cloned into plasmids controlling ZsGreen fluorescent protein and targeted to the AAVS1 safe harbor locus on chromosome 19 in human iPSC (plasmid design is shown below using the CAG promoter as an example). […] Correctly targeted heterozygous clones were expanded.
Genomic Loci Suitable for Tagging to Yield Constitutive Expression: In addition to promoter-driven expression from a safe harbor, specific genes expressed in most cell-types can be tagged with a reporter gene to give constitutive expression. The genes HSP90AB1, ACTB, CTNNB1, and MYL6 were chosen for evaluation and were tagged with ZsGreen and an F2A cleavage sequence via TALEN-mediated gene editing. Correctly targeted heterozygous clones were expanded.
ZsGreen expression in iPSC: Engineered iPSC lines expressing ZsGreen fluorescent protein were maintained in culture for up to seven months (E8 media/vitronectin coated plates) and periodically checked for green expression using flow cytometry on an Accuri C6 instrument (BD).

[4] = tested on: iPSC-derived cardiac cells; assay: ZsGreen expression after cardiac differentiation protocol, day 21 flow cytometry; format: cell-based, human; conditions: day 21 of differentiation
Description: as §1

[5] = tested on: iPSC line 01279.107; assay: Luciferase expression during transient transfection of promoter-pGL3 plasmids (Dual-Luciferase Reporter Assay); format: cell-based, human; conditions: assayed one day later
Description: Promoters cloned: The following promoters were identified as being likely candidates for constitutive expression in all cell types. Some were cloned from existing plasmids (CAG, PGK, UBC-version1, EEF1A1, ACTB). […] The new promoters include RPS19, UBA52, HSP90AB1, an enlarged region of UBC (version 2), UBB, RPSA, NACA, and COX8A. Sequences were cloned into the pGL3 plasmid vector (replacing the SV40 promoter between MluI and NcoI restriction sites) to enable a comparison of promoter strength when driving the luciferase reporter gene.
Luciferase expression during transient transfection: Transient transfection was performed of the promoter-pGL3 plasmids into iPSCs to determine the strength of expression. Using a 96wp format, 50 uL of E8 media+10 uM blebbistatin was added to each well. Each plasmid was assayed in triplicate by adding 16.5 uL of the following reagent preparation. One well of a 6wp of iPSC line 01279.107 was harvested using Accutase, resuspended in 3.5 mL E8 media+10 uM blebbistatin, and 50 uL was added to each well. One day later the cells were assayed using the Dual-Luciferase Reporter Assay System (Promega).
Expression values at or above the level of the PGK promoter were desired so RPS19, UBA52, HSP90AB1, and UBC were selected for further study.

[6] = tested on: iPSCs; assay: Fluorescent protein transgene expression over time in engineered iPSCs (PPP1R12C/AAVS1 locus); format: cell-based
Description: FIGS. 1A-1D: ZsGreen expression driven by EEF1A1p is mottled in iPSCs. iPSCs 01278.103 (FIG. 1A, 1B) and 01279.107 (FIG. 1C, 1D) were engineered with EEF1A1p-ZsGreen at the PPP1R12C locus. Brightfield and Fluorescence (GFP) microscopy were used to capture the GFP expression in the cells 11 passages post-engineering (FIGS. 1A-1B) or 18 passages post-engineering (FIGS. 1C-1D).
The percent GFP expression in five clones targeted with EEF1A1p-CpG-free-AcGFP1 (FIG. 3A) and nine clones targeted with EEF1A1p-AcGFP1 (FIG. 3B) at the AAVS1 locus was monitored overtime.
FIGS. 4A-4C: Rapid silencing of AcGFP1 in iPSCs. Depiction of engineering iPSCs at the PPP1R12C locus (AAVS1 safe harbor) with three cassettes EEF1A1p-mRFP1+PGKp-Puro, EEF1A1p-AcGFP1 or EEF1A1p-CpG-Free AcGFP1. Noted within the figure are the engineered iPSC ID numbers for cell lines 8717 and 9650 which are used in further experiments throughout the document (FIG. 4A). […] After two months in culture, AcGFP1 engineered iPSCs were bulk sorted for AcGFP1 expression. Brightfield and Fluorescence (GFP) microscopy was used to capture the GFP expression in the cells 12 days post-sorting (FIG. 4B) or 23 days post-sorting (FIG. 4C).
The EEF1A1 promoter was used for expression of AcGFP1 in iPSCs at the PPP1R12C locus.

[7] = tested on: iPSC line 2.038; assay: Drug resistance of iPSC line 2.038 transfected with WT PuroR vs. CpG-free PuroR plasmids; format: cell-based; conditions: cassette introduced into iPSCs by electroporation
Description: The CpG-free PuroR cassette was introduced into iPSCs by electroporation.

Molecule | ZsGreen fluorescence after neuronal differentiation [2] | ZsGreen expression in iPSC over time [3] | ZsGreen expression after cardiac differentiation [4] | also measured
CCCC(=O)[O-].[Na+] [NaBut, sodium butyrate] | – | – | – | effect on GFP expression levels over time ([1]; 0.25 mM and 0.5 mM NaBut, 46 days): dose dependent effect; reactivation of GFP expression ([1]; 1 mM, 0.5 mM, or 1 μM NaBut, nine days, flow cytometry): dose dependent reactivation; also recorded: dose-dependent reactivation
RPS19: RPS19 promoter, SEQ ID NO:2 | tight and stable expression | stable iPSC expression over four months | varying amounts of expression silencing | ZsGreen expression in iPSC at seven months ([3]; out to seven months in culture): some silencing
HSP90AB1del400 promoter: HSP90AB1 promoter with 417 bp deletion between two ClaI sites, SEQ ID NO:4 | many cells with diminishing fluorescence | stable iPSC expression over four months | varying amounts of expression silencing | Normalized luciferase (Firefly/Renilla ratio, normalized to EEF1A1=100%) [5]: around 66%
HSP90AB1 promoter: HSP90AB1 promoter, SEQ ID NO:5 | – | – | – | Normalized luciferase (Firefly/Renilla ratio, normalized to EEF1A1=100%) [5]: ~75%
UBA52: UBA52 promoter, SEQ ID NO:3 | tight and stable expression | stable iPSC expression over four months | tight and stable expression | –
AcGFP1: Aequorea coerulescens green fluorescence protein DNA sequence, SEQ ID NO:13 [reference compound] | – | – | – | cells with no GFP expression (silenced) ([6]; CpG-free AcGFP1 cultures, after 5 months): 3%; stability of fluorescent protein expression over time ([6]; EEF1A1 promoter, PPP1R12C (AAVS1) locus, iPSCs in culture): not maintained overtime; also recorded: did not retain consistent expression
CpG-free PuroRv1: CpG-free puromycin resistance gene sequence, SEQ ID NO:15 (nucleic acid, misc_feature 1..606 Synthetic promotor sequence) DNA: ATGACTGAATACAAACCAACTGTTAGACTGGCAACTAGAGATGATGTTCCAAGAGCAGTTAGAACCCTGGCTGCTGCATTTGCTGACTACCCTGCAACCAGACACACTGTGGACCCAGACAGACACATTGAAAGAGTGACTGAACTGCAGGAGCTGTTCCTGACCAGAGTGGGCCTGGACATTGGCAAAGTGTGGGTGGCAGATGATGGTGCTGCTGTGGCAGTGTGGACCACCCCTGAATCTGTTGAAGCTGGTGCAGTGTTTGCTGAGATTGGCCCAAGAATGGCAGAACTGTCTGGCAGCAGACTGGCAGCACAACAGCAGATGGAAGGTCTGCTGGCACCACACAGACCAAAAGAACCTGCTTGGTTCCTGGCAACTGTGGGTGTGAGCCCTGACCACCAGGGTAAGGGCCTGGGCTCTGCAGTGGTGCTGCCTGGTGTGGAAGCAGCTGAAAGAGCAGGTGTGCCTGCTTTCCTGGAGACCTCAGCTCCAAGAAACCTGCCTTTCTATGAAAGACTGGGCTTCACTGTGACTGCTGATGTGGAAGTGCCAGAAGGCCCAAGAACTTGGTGCATGACTAGAAAACCAGGTGCTTGATAATGA | – | – | – | drug resistance conferred [7]: capable of conferring drug resistance
PuroRv2: CpG-free puromycin resistance gene version 2, SEQ ID NO:16 (nucleic acid, misc_feature 1..606 Synthetic promotor sequence) DNA: ATGACTGAATACAAACCAACTGTTAGACTGGCAACTAGAGATGATGTTCCAAGAGCAGTTAGAACCCTGGCTGCTGCATTTGCTGACTACCCTGCAACCAGACACACTGTGGACCCAGACAGACACATTGAAAGAGTGACTGAACTGCAGGAGCTGTTCCTGACCAGAGTGGGCCTGGACATTGGCAAAGTGTGGGTGGCAGATGATGGTGCTGCTGTGGCAGTGTGGACCACCCCTGAATCTGTTGAAGCTGGTGCAGTGTTTGCTGAGATTGGCCCAAGAATGGCAGAACTGTCTGGCAGCAGACTGGCAGCACAACAGCAGATGGAAGGTCTGCTGGCACCACACAGACCAAAAGAACCTGCTTGGTTCCTGGCAACTGTGGGTGTGAGCCCTGACCACCAGGGTAAGGGCCTGGGCTCTGCAGTGGTGCTGCCTGGTGTGGAAGCAGCTGAAAGAGCAGGTGTGCCTGCTTTCCTGGAGACCTCAGCTCCAAGAAACCTGCCTTTCTATGAAAGACTGGGCTTCACTGTGACTGCTGATGTGGAATGCCCAAAGGACAGAGCAACTTGGTGCATGACTAGAAAACCAGGTGCTTGATAATGA | – | – | – | drug resistance conferred [7]: capable of conferring drug resistance
